Measurements taken from patent publication US11299478B2, “2-cyanopyrimidin-4-yl carbamate or urea derivative or salt thereof, and pharmaceutical composition including same” (HANLIM PHARMACEUTICAL CO., LTD., priority 2018, dated 2022).

Experiments:
Assay type in all cases: biochemical
[1] = biological target: cathepsin L (Homo sapiens, UniProt P07711); test: Inhibitory activity assay against cathepsin L (enzyme assay); settings: Z-Phe-Arg-AMC 2 μM, enzyme 3 nM, pH 5.5, 30 minutes
Procedure: In order to measure the enzyme activity of cathepsin L, a buffer solution (pH 5.5) consisting of 50 mM MES, 2.5 mM DTT, 2.5 mM EDTA, 0.005% Polysorbate 20, and 10% DMSO was prepared. The substrate, the test material, and the enzyme were mixed in the buffer solution in a predetermined concentration. The Z-Phe-Arg-AMC substrate was used in the final concentration of 2 μM. The test material was used in the final concentrations of 10.0 μM, 3.33 μM, 1.11 μM, 0.370 μM, 0.123 μM, 0.0412 μM, 0.0137 μM, 0.00457 μM, 0.00152 μM, and 0.000508 μM, respectively. The cathepsin L enzyme was used in the final concentration of 3 nM. The final volume of the enzyme reaction solution was 10 μL. After reacting the mixture of substrate, test material, and enzyme for 30 minutes, the enzyme activity was measured with the EnVision (Perkin Elmer) microplate reader at an absorption wavelength of 340 nm and an emission wavelength of 460 nm. IC50 values were determined using 4-parameter logistic curve fit program of GraphPad Prism.

[2] = biological target: cathepsin S (Homo sapiens, UniProt P25774); test: Inhibitory activity assay against cathepsin S (enzyme assay); settings: Z-Phe-Arg-AMC 70 μM, enzyme 3 nM, pH 6.5, 45 minutes
Procedure: In order to measure the enzyme activity of cathepsin S, a buffer solution (pH 6.5) consisting of 50 mM MES, 2.5 mM DTT, 1.0 mM EDTA, 0.001% bovine serum albumin (BSA), and 10% DMSO was prepared. The substrate, the test material, and the enzyme were mixed in the buffer solution in a predetermined concentration. The Z-Phe-Arg-AMC substrate was used in the final concentration of 70 μM. The test material was used in the final concentrations of 10.0 μM, 3.33 μM, 1.11 μM, 0.370 μM, 0.123 μM, 0.0412 μM, 0.0137 μM, 0.00457 μM, 0.00152 μM, and 0.000508 μM, respectively. The cathepsin S enzyme was used in the final concentration of 3 nM. The final volume of the enzyme reaction solution was 10 μL.
After reacting the mixture of substrate, test material, and enzyme for 45 minutes, the enzyme activity was measured with the EnVision (Perkin Elmer) microplate reader at an absorption wavelength of 340 nm and an emission wavelength of 460 nm. IC50 values were determined using 4-parameter logistic curve fit program of GraphPad Prism.

[3] = biological target: T1, cathepsin K (Homo sapiens, UniProt P43235); test: Inhibitory activity assay against cathepsin K (enzyme assay); settings: Z-Phe-Arg-AMC 10 μM, enzyme 1 nM, pH 5.5, 30 minutes
T1 sequence (P43235 115-329): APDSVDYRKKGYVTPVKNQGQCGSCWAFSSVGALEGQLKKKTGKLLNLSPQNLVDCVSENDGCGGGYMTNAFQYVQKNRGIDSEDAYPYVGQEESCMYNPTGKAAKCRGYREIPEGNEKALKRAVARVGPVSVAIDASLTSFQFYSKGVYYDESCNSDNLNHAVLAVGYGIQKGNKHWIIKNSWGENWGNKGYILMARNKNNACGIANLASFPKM
Procedure: In order to measure the enzyme activity of cathepsin K, a buffer solution (pH 5.5) consisting of 50 mM 2-(N-morpholino)ethanesulfonic acid (MES), 2 mM dithiothreitol (DTT), 2.5 mM ethylenediaminetetraacetic acid (EDTA), 0.01% Triton X-100, and 10% dimethyl sulfoxide (DMSO) was prepared. The substrate, the test material, and the enzyme were mixed in the buffer solution in a predetermined concentration. The Z-Phe-Arg-AMC substrate was used in the final concentration of 10 μM. The test material was used in the final concentrations of 10.0 μM, 3.33 μM, 1.11 μM, 0.370 μM, 0.123 μM, 0.0412 μM, 0.0137 μM, 0.00457 μM, 0.00152 μM, and 0.000508 μM, respectively. The cathepsin K enzyme was used in the final concentration of 1 nM. The final volume of the enzyme reaction solution was 10 μL. After reacting the mixture of substrate, test material, and enzyme for 30 minutes, the enzyme activity was measured with the Synergy Neo (Biotek) microplate reader at an absorption wavelength of 355 nm and an emission wavelength of 460 nm. IC50 values were determined using 4-parameter logistic curve fit program of GraphPad Prism.

[4] = biological target: cathepsin B (Homo sapiens, UniProt P07858); test: Inhibitory activity assay against cathepsin B (enzyme assay); settings: Z-Arg-Arg-AMC 40 μM, enzyme 1 nM, pH 6.0, 90 minutes
Procedure: In order to measure the enzyme activity of cathepsin B, a buffer solution (pH 6.0) consisting of 50 mM MES, 5 mM DTT, 2.5 mM EDTA, 0.005% Polysorbate 20, and 10% DMSO was prepared. The substrate, the test material, and the enzyme were mixed in the buffer solution in a predetermined concentration. The Z-Arg-Arg-AMC substrate was used in the final concentration of 40 μM. The test material was used in the final concentrations of 10.0 μM, 3.33 μM, 1.11 μM, 0.370 μM, 0.123 μM, 0.0412 μM, 0.0137 μM, 0.00457 μM, 0.00152 μM, and 0.000508 μM, respectively. The cathepsin B enzyme was used in the final concentration of 1 nM. The final volume of the enzyme reaction solution was 10 μL. After reacting the mixture of substrate, test material, and enzyme for 90 minutes, the enzyme activity was measured with the EnVision (Perkin Elmer) microplate reader at an absorption wavelength of 340 nm and an emission wavelength of 460 nm. IC50 values were determined using 4-parameter logistic curve fit program of GraphPad Prism.

Sequence of cathepsin S (P25774 115-331, species assumed): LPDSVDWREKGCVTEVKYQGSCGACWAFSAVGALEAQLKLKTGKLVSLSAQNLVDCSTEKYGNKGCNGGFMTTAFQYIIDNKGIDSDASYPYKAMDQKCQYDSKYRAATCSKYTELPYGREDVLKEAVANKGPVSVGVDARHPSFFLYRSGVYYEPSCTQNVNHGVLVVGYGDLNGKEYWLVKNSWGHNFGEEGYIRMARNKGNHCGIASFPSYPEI
Sequence of cathepsin L (P07711 114-333, species assumed): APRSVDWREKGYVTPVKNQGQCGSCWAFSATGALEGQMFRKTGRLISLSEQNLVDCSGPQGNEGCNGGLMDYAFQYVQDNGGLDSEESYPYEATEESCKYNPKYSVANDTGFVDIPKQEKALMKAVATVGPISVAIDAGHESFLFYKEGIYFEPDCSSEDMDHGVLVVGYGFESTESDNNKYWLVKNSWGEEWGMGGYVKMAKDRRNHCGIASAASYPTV

SMILES | IC50 [1] [nM] | IC50 [2] [nM] | IC50 [3] [nM] | IC50 [4] [nM]
N#Cc1nccc(C2(NC(=O)Nc3cc(C(F)(F)F)cc(C(F)(F)F)c3)CCCCC2)n1 [Example 95, 1-(3,5-bis(trifluoromethyl)phenyl)-3-(1-(2-cyanopyrimidin-4-yl)cyclohexyl)urea] | > 10000 | > 10000 | 18.3 | > 10000
N#Cc1nccc(C2(NC(=O)Nc3cc(F)ccc3F)CCCC2)n1 [Example 65, 1-(1-(2-cyanopyrimidin-4-yl)cyclopentyl)-3-(2,5-difluorophenyl)urea] | > 10000 | > 10000 | 46.6 | > 10000
CN(C(=O)NC1(c2ccnc(C#N)n2)CCCCC1)c1ccccc1 [Example 104, 3-(1-(2-cyanopyrimidin-4-yl)cyclohexyl)-1-methyl-1-phenylurea] | 5590 | 3540 | 12.4 | > 10000
N#Cc1nccc(C2(NC(=O)Nc3ccc(-c4ccc(S(N)(=O)=O)cc4)c(C(F)(F)F)c3)CCCCC2)n1 [Example 179, 4′-(3-(1-(2-cyanopyrimidin-4-yl)cyclohexyl)ureido)-2′-(trifluoromethyl)-[1,1′-biphenyl]-4-sulfonamide] | 7530 | 2760 | 11.5 | > 10000
N#Cc1nccc(C2(NC(=O)Nc3ccc(-c4ccccc4)cc3)CCCCC2)n1 [Example 113, 1-([1,1′-biphenyl]-4-yl)-3-(1-(2-cyanopyrimidin-4-yl)cyclohexyl)urea] | > 10000 | > 10000 | 12.2 | > 10000
N#Cc1nccc(C2(NC(=O)Nc3cccc4ccccc34)CCCC2)n1 [Example 74, 1-(1-(2-cyanopyrimidin-4-yl)cyclopentyl)-3-(naphthalen-1-yl)urea] | > 10000 | > 10000 | 27 | > 10000
N#Cc1nccc(C2(NC(=O)OCc3cccc(Br)c3)CCCCC2)n1 [Example 12, 3-bromobenzyl (1-(2-cyanopyrimidin-4-yl)cyclohexyl)carbamate] | 6910 | > 10000 | 168 | > 10000
Cc1ccc(C(F)(F)F)cc1NC(=O)NC1(c2ccnc(C#N)n2)CCCCC1 [Example 99, 1-(1-(2-cyanopyrimidin-4-yl)cyclohexyl)-3-(2-methyl-5-(trifluoromethyl)phenyl)urea] | 1100 | > 10000 | 3.2 | > 10000
N#Cc1nccc(C2(NC(=O)Nc3ccc(-c4ccc(C5CCN(C6CC6)CC5)cc4)c(F)c3)CCCCC2)n1 [Example 168, 1-(1-(2-cyanopyrimidin-4-yl)cyclohexyl)-3-(4′-(1-cyclopropylpiperidin-4-yl)-2-fluoro-[1,1′-biphenyl]-4-yl)urea] | > 10000 | > 10000 | 0.3 | > 10000
N#Cc1nccc(C2(NC(=O)Nc3ccc4c(c3)OCO4)CCCC2)n1 [Example 78, 1-(benzo[d][1,3]dioxol-5-yl)-3-(1-(2-cyanopyrimidin-4-yl)cyclopentyl)urea] | > 10000 | > 10000 | 51.8 | > 10000
N#Cc1nccc(C2(NC(=O)Nc3cc(C(F)(F)F)ccc3C(=O)O)CCCCC2)n1 [Example 98, 2-(3-(1-(2-cyanopyrimidin-4-yl)cyclohexyl)ureido)-4-(trifluoromethyl)benzoic acid] | > 10000 | 4480 | 61.7 | > 10000
CC(=O)NCc1ccc(-c2ccc(NC(=O)NC3(c4ccnc(C#N)n4)CCCCC3)cc2F)cc1 [Example 165, N-((4′-(3-(1-(2-cyanopyrimidin-4-yl)cyclohexyl)ureido)-2′-fluoro-[1,1′-biphenyl]-4-yl)methyl)acetamide] | > 10000 | > 10000 | 5.7 | > 10000
N#Cc1nccc(C2(NC(=O)Nc3ccc(N4CCN(C5CC5)CC4)cc3)CCCCC2)n1 [Example 144, 1-(1-(2-cyanopyrimidin-4-yl)cyclohexyl)-3-(4-(4-cyclopropylpiperazin-1-yl)phenyl)urea] | > 10000 | > 10000 | 18.3 | > 10000
Cn1cc(-c2ccc(NC(=O)NC3(c4ccnc(C#N)n4)CCCCC3)cc2)cn1 [Example 120, 1-(1-(2-cyanopyrimidin-4-yl)cyclohexyl)-3-(4-(1-methyl-1H-pyrazol-4-yl)phenyl)urea] | > 10000 | > 10000 | 3.9 | 9280
N#Cc1nccc(C2(NC(=O)Nc3ccc(-c4ccccc4F)cc3)CCCCC2)n1 [Example 124, 1-(1-(2-cyanopyrimidin-4-yl)cyclohexyl)-3-(2′-fluoro-[1,1′-biphenyl]-4-yl)urea] | > 10000 | > 10000 | 6.9 | > 10000
N#Cc1nccc(C2(NC(=O)OCc3ccccc3)CCCCC2)n1 [Example 10, Benzyl (1-(2-cyanopyrimidin-4-yl)cyclohexyl)carbamate] | 1180 | 7010 | 5.6 | > 10000
N#Cc1nccc(C2(NC(=O)Nc3ccc(-c4ccc(C(=O)NCCc5c[nH]cn5)cc4)cc3)CCCCC2)n1 [Example 184, N-(2-(1H-imidazol-4-yl)ethyl)-4′-(3-(1-(2-cyanopyrimidin-4-yl)cyclohexyl)ureido)-[1,1′-biphenyl]-4-carboxamide] | 2420 | 8050 | 0.2 | 2150
N#Cc1nccc(C2(NC(=O)Nc3ccc(N4CCNCC4)cc3)CCCCC2)n1 [Example 140, 1-(1-(2-cyanopyrimidin-4-yl)cyclohexyl)-3-(4-(piperazin-1-yl)phenyl)urea] | 6570 | > 10000 | 21.5 | > 10000
N#Cc1nccc(C2(NC(=O)OCc3ccc(F)cc3)CCCCC2)n1 [Example 27, 4-fluorobenzyl (1-(2-cyanopyrimidin-4-yl)cyclohexyl)carbamate] | 895 | 7780 | 22.4 | > 10000
